Measured values taken from patent US20260263338A1, “COMPOSITIONS COMPRISING AMAROUCIAXANTHIN A ESTERS AND USES THEREOF” (GAT THERAPEUTICS, S.L., priority 2022, published 2026).
In brackets after ≈: the same amount, converted by molar mass.

Tests used:
[1] = Solubility in different lipid vehicle formulations (HPLC assay of the filtered sample); format: physicochemical; conditions: about 25 mg compound in 1 mL
Protocol: About 25 mg of compound was weighted into a glass vial and 1 mL of the lipophilic solvent was added to the vial containing the compound. The vial was vortexed for 1 minute followed by sonication for 30 minutes. The resulting solution was visually observed for any undissolved particles. The sonicated sample was filtered through a 0.22 μm PTFE filter and 500 μL of this filtered sample was dissolved with 25 mL of a EtOH: hexane (80:20) solution (“dilution 1”). 1 mL of “dilution 1” was dissolved with 10 mL of ACN to obtain “dilution 2”. 1 mL of “dilution 2” was filtered through a 0.22 μm PTFE filter and directly used for assay by HPLC. The concentration was calculated by extrapolation from a calibration curve. 1.00 mg of standard compound was accurately weighted (precision scale) and diluted to 100 ppm in a volumetric flask.

[2] = Oral kinetic assay in mice: plasma concentration of ACX after oral delivery of FCX or ACX-Ac; format: in vivo, mice Hsd: ICR (CD-1); conditions: for AUCt, area under the concentration-time curve from 0 to the time of the last quantifiable observation, of ACX / Cmax: ACX measured in plasma after the named compound, oral (intragastric), single 10 mg/kg, sunflower oil; for AUCt, area under the concentration-time curve from 0 to the time of the last quantifiable observation, of ACX: linear-log trapezoidal rule; for Cmax: noncompartmental analysis, read-out: Cmax, maximum observed plasma concentration of ACX
Protocol: Immunocompetent mice from the strain Hsd: ICR (CD-1) (females, 6-7 weeks old from ENVIGO), were housed under sterile conditions at a constant temperature of 20-22° C. and relative humidity (45-65%) under daily cycles of light/darkness (12 hours). Sterilized water and food were available ad libitum.
ACX-Ac was dissolved at 1 mg/mL in sunflower oil and sterilized by filtration. FCX was dissolved at 2 mg/mL in sunflower oil and sterilized by filtration. Animals were weighted before the assay to determine the appropriate dispensing volume at 5 mL/kg (FCX) or 10 ml/kg (ACX-Ac). Formulations were administered once, intragastrically, at 10 mg/kg. Blood was collected at different time points, as stated in Table 1. It was extracted either through the facial vein or by intracardiac puncture (end points), on recipients containing 5 μL of 0.5 M EDTA.
Blood samples were analyzed by HPLC-MS/MS following proprietary analytical methods and the concentration of ACX in each sample was determined. A non-compartmental pharmacokinetic analysis was carried out using individual plasma concentrations versus sampling times by means of the PKPlus® software version 2.0 (Simulations Plus, Lancaster, CA 93534, USA).

[3] = DHA (fish oil), PUFA-enriched oil

SMILES	solubility [1, 3]	solubility ([1]; Labrafac Lipophile 1349)	solubility ([1]; Labrafac MC60)	solubility ([1]; Labrafil M 1944CS)	solubility ([1]; Labrafil M 2125)	solubility ([1]; Labrasol ALF)	solubility ([1]; Maisine)	solubility ([1]; Plurol Oleique)	solubility ([1]; Sunflower oil)	AUCt, area under the concentration-time curve from 0 to the time of the last quantifiable observation, of ACX [2]	Cmax [2]	administered compound detected in plasma samples ([2]; oral, 10 mg/kg in sunflower oil)	plasma levels of ACX in comparison to those obtained after FX administration ([2]; oral, 10 mg/kg in sunflower oil, FIG. 1 and Table 3)	oral absorption of the administered compound ([2]; oral, oil formulation, 10 mg/kg)
CC1=CC(=O)CC(C)(C)[C@@]1(O)CC(=O)/C(C)=C/C=C/C(C)=C/C=C/C=C(C)/C=C/C=C(\C)C=C=C1C(C)(C)C[C@H](O)C[C@@]1(C)O [ACX, Amarouciaxanthin A]	7.2 mg/mL (≈ 11.7 mM)	19.0 mg/mL (≈ 30.9 mM)	15.9 mg/mL (≈ 25.9 mM)	19.9 mg/mL (≈ 32.4 mM)	20.3 mg/mL (≈ 33 mM)	22.4 mg/mL (≈ 36.4 mM)	19.9 mg/mL (≈ 32.4 mM)	16.7 mg/mL (≈ 27.2 mM)	9.2 mg/mL (≈ 15 mM)					
CC(=O)O[C@H]1CC(C)(C)C(=C=C/C(C)=C/C=C/C(C)=C/C=C/C=C(C)/C=C/C=C(\C)C(=O)C[C@@]2(O)C(C)=CC(=O)CC2(C)C)[C@](C)(O)C1 [ACX-Ac, Amarouciaxanthin A acetate]	18.3 mg/mL	21.7 mg/mL	21.0 mg/mL	22.6 mg/mL	23.0 mg/mL	22.4 mg/mL	22.9 mg/mL	11.9 mg/mL	19.9 mg/mL	80.59 µM·h	9.35 µM	not detected	substantially higher	
CC(=O)O[C@H]1CC(C)(C)C(=C=C/C(C)=C/C=C/C(C)=C/C=C/C=C(C)/C=C/C=C(\C)C(=O)C[C@@]23O[C@]2(C)C[C@@H](O)CC3(C)C)[C@](C)(O)C1 [FCX, fucoxanthin]	4.1 mg/mL (≈ 6.22 mM)	16.9 mg/mL (≈ 25.6 mM)	20.4 mg/mL (≈ 31 mM)	17.6 mg/mL (≈ 26.7 mM)	23.0 mg/mL (≈ 34.9 mM)	22.3 mg/mL (≈ 33.8 mM)	23.0 mg/mL (≈ 34.9 mM)	20.7 mg/mL (≈ 31.4 mM)	5.0 mg/mL (≈ 7.59 mM)	51.19 µM·h	2.87 µM			negligible
